Measurements reported in patent EP4799619A1, “COMPOUND TARGETING EGR-1 AND USE THEREOF FOR TREATMENT OF ATOPIC DERMATITIS” (AgeraMedi, Inc., priority 2023, dated 2025).

The molecules below were run against EGR-1 (Homo sapiens, UniProt P18146) (assay: EGR-1 DNA binding activity assay (EDBA)). Conditions: EGR-1 DNA binding inhibitory activity; EGR-1 overexpressing cell lysate; absorbance at 450 nm; compound concentration not given.
Set-up: made in house
Description: In this experiment, the inhibitory effect of the compounds of the present invention on EGR-1 binding activity was evaluated using an EGR-1 DNA binding activity assay (EDBA).
Single-stranded sense and antisense oligonucleotides of the following EGR-1 binding sequence (EBS) were prepared by outsourcing to Bioneer Co., Ltd. (Daejeon, Korea). In this case, the 5'-end of the sense oligonucleotide was labeled with biotin. The sense and antisense oligonucleotides were heated at 95 °C for 5 minutes and then left overnight at room temperature to hybridize the sense and antisense oligonucleotides. Hereinafter, the hybridized sense and antisense oligonucleotides are referred to as biotin-EBS. • Sense sequence: biotin-5'-[…]-3' • Antisense sequence: 5'-[…]-3'
Avidin protein was coated on a 96-well plate (purchased from Thermo Fisher Scientific), and biotin-EBS was added to the plate at a concentration of 0.5 pmol/50 µL/well, followed by reaction at 37 °C for 1 hour to allow biotin-EBS oligonucleotide to be attached to the plate. After washing three times with phosphate buffer saline containing 0.05% Tween 20 (PBS/Tween 20) to remove unattached biotin-EBS oligonucleotides, 200 µL of PBS/Tween 20 solution containing 2% bovine serum albumin (BSA) was added to each well, followed by reaction at 37 °C for 1 hour to block the surface of the plate where no oligonucleotide was attached.
The solution containing the sample compound and the EGR-1 protein was added to the biotin-EBS oligonucleotide coated plate prepared in step (2).
The compound sample (1 µL) was reacted with the EGR-1 overexpressing cell lysate containing 10 mM Tris, pH 7.5, 50 mM KCl, 2% BSA and 8% glycerol at room temperature for 30 minutes, and then added to a reaction well coated with biotin-EBS and further reacted at room temperature for one hour. After washing three times with PBS/Tween 20 solution, an EGR-1 antibody was added to the PBS solution supplemented with 2% BSA and 5 mM NaCl in an amount of 50 µL per each well. The mixture was incubated at room temperature for one hour, washed three times with PBS/Tween 20 solution, and then treated with horseradish peroxidase-conjugated secondary antibody (Goat anti-rabbit IgG antibody, Cell Signaling Technology company, Danvers, Mass., USA) diluted by 1:1000 at room temperature for one hour. After washing five times with PBS/Tween 20 solution, a substrate tetramethylbenzidine solution was added to each well in an amount of 50 µL. After reacting for 5 minutes, the reaction was stopped by adding 100 µL of 2 N sulfuric acid solution. The DNA binding inhibitory activity of EGR-1 was measured by absorbance at 450 nm according to Equation 1 below. EGR-1 DNA binding inhibitory activity (%) = 100−{(As/Ap)×100} [formula]
As: absorbance of a sample prepared by reacting an EGR-1-overexpressing cell lysate with the compound.
Ap: absorbance of the sample treated only with EGR-1-overexpressing cell lysate.

Chain of EGR-1 (P18146 whole entry): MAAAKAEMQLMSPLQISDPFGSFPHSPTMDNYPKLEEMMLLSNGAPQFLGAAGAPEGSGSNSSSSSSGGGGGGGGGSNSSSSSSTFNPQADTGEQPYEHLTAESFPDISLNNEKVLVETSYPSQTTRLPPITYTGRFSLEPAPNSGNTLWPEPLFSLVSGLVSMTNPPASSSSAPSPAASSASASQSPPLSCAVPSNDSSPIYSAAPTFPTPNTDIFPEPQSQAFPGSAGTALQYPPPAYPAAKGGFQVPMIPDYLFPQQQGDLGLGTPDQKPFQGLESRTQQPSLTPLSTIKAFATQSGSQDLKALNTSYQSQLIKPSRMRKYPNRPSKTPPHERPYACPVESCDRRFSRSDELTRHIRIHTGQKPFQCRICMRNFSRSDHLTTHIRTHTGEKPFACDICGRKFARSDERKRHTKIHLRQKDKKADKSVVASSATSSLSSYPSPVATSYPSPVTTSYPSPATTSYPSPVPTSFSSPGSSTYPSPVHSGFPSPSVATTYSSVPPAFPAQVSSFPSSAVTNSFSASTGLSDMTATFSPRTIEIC

Row | SMILES | Inhibition Rate (%)
1 | COc1ccc(NC(=S)N/N=C2\C(=O)Nc3ccccc32)cc1 [Compound 53, (Z)-N-(4-methoxyphenyl)-2-(2-oxoindolin-3-ylidene)hydrazinethioamide] | 10.00
2 | O=C1Nc2ccc(F)cc2/C1=N/NC(=S)Nc1ccc(Br)cc1 [Compound 15, (Z)-N-(4-bromophenyl)-2-(5-fluoro-2-oxoindolin-3-ylidene)hydrazinethioamide] | 37.07
3 | O=C1Nc2ccc(F)cc2/C1=N/NC(=S)Nc1ccccc1 [Compound 12, (Z)-2-(5-fluoro-2-oxoindolin-3-ylidene)-N-phenylhydrazinethioamide] | 28.97
4 | O=C1Nc2ccccc2/C1=N/NC(=S)Nc1ccc(F)cc1 [Compound 57, (Z)-N-(4-fluorophenyl)-2-(2-oxoindolin-3-ylidene)hydrazinethioamide] | 40.10
5 | NNC(=S)Nc1cccc(C(F)(F)F)c1 [Compound 1, N-(3-(trifluoromethyl)phenyl)hydrazinethioamide] | 23.60
6 | O=C1Nc2ccc(OC(F)(F)F)cc2/C1=N/NC(=S)Nc1ccc(F)cc1 [Compound 78, (Z)-N-(4-fluorophenyl)-2-(2-oxo-5-(trifluoromethoxy)indolin-3-ylidene)hydrazinethioamide] | 33.93
7 | O=C1Nc2cccc(Br)c2/C1=N/NC(=S)Nc1ccccc1 [Compound 43, (Z)-2-(4-bromo-2-oxoindolin-3-ylidene)-N-phenylhydrazinethioamide] | 23.00
8 | COc1ccccc1NC(=S)N/N=C1\C(=O)Nc2cccc(Cl)c21 [Compound 61, (Z)-2-(4-chloro-2-oxoindolin-3-ylidene)-N-(2-methoxyphenyl)hydrazinethioamide] | 43.03
9 | CCNC(=S)NN [Compound 6, N-ethylhydrazinethioamide] | 27.00
10 | NC(=S)N/N=C1\C(=O)Nc2cc(Br)ccc21 [Compound 41, (Z)-2-(6-bromo-2-oxoindolin-3-ylidene)hydrazinethioamide] | 49.00
11 | Cc1ccc2c(c1)/C(=N/NC(=S)Nc1ccccc1)C(=O)N2 [Compound 72, (Z)-2-(5-methyl-2-oxoindolin-3-ylidene)-N-phenylhydrazinethioamide] | 19.57
12 | O=C1Nc2cc(Cl)ccc2/C1=N/NC(=S)Nc1ccccc1 [Compound 60, (Z)-2-(6-chloro-2-oxoindolin-3-ylidene)-N-phenylhydrazinethioamide] | 48.07
13 | O=C1Nc2cccc(Br)c2/C1=N/NC(=S)Nc1ccc([N+](=O)[O-])cc1 [Compound 37, (Z)-2-(4-bromo-2-oxoindolin-3-ylidene)-N-(4-nitrophenyl)hydrazinethioamide] | 36.33
14 | COc1ccc2c(c1)NC(=O)/C2=N\NC(=S)Nc1ccc(C(F)(F)F)cc1 [Compound 26, (Z)-2-(6-methoxy-2-oxoindolin-3-ylidene)-N-(4-(trifluoromethyl)phenyl)hydrazinethioamide] | 49.67
15 | O=C1Nc2ccc(F)cc2/C1=N/NC(=S)NCc1ccccc1 [Compound 63, (Z)-N-benzyl-2-(5-fluoro-2-oxoindolin-3-ylidene)hydrazinethioamide] | 48.77
16 | NC(=S)N/N=C1\C(=O)Nc2cccc(Br)c21 [Compound 40, (Z)-2-(4-bromo-2-oxoindolin-3-ylidene)hydrazinethioamide] | 27.33
17 | NNC(=S)Nc1ccc(C(F)(F)F)cc1 [Compound 5, N-(4-(trifluoromethyl)phenyl)hydrazinethioamide] | 6.33
18 | N#Cc1ccc(NC(=S)N/N=C2\C(=O)Nc3c(F)cccc32)cc1 [Compound 20, (Z)-N-(4-cyanophenyl)-2-(7-fluoro-2-oxoindolin-3-ylidene)hydrazinethioamide] | 44.93
19 | COc1ccc2c(c1)NC(=O)/C2=N\NC(=S)Nc1ccccc1OC [Compound 24, (Z)-2-(6-methoxy-2-oxoindolin-3-ylidene)-N-(2-methoxyphenyl)hydrazin-1-carbothioamide] | 42.00
